For 88 compounds, melting point results are on record in a melting point compilation (Tetko et al.; mined from patent text by program, amines drawn as free bases though some values may be those of a salt).

Some results are limits rather than exact numbers.

By melting point is commonly meant the temperature, or range, at which the solid turns liquid. Take `COc1cccc(-n2nc(Sc3ccc(Cl)cc3)c(C)c(C#N)c2=O)c1`: the melting point is 148 to 149 °C.
Consider `CC1(C)C=C(n2cccnc2=O)c2cc(C#N)ccc2O1`, for which the melting point fell in the range of 250 to 252 °C.
Take `O=C1CC(c2c(-c3ccc[nH]3)[nH]c3ccccc23)C(=O)N1` (stereo not drawn): the melting point was 67 to 69 °C.
`Nc1ccc2c(c1)Sc1ccccc1N2` registered a melting point of 150 to 156 °C.
The value for `N#Cc1cc(F)c(-c2ncnc(C(F)F)c2Cl)cc1[N+](=O)[O-]` was 100 to 102 °C.
Regarding `COC(=O)C1Cc2cc(OC)ccc2N1S(=O)(=O)c1ccc(I)cc1` (stereo not drawn), the melting point is 154 °C.
The same measure for `CCCc1coc2c(Cc3ccc(C(C)C)cc3)c(C)cc(C)c12`: 89 to 90 °C.
The value for `COc1ccc(-c2cccc(C3SC(N4CCOCC4)=NC3=O)n2)cc1-c1ccccc1` (stereo not drawn) was 214 to 217 °C; that for `CC(F)C(C)(N)C(N)=O` (stereo not drawn) was 81 °C.
As for `CC(COc1ccc(C(N)=O)c(O)c1)NCC(O)COc1ccc(NS(C)(=O)=O)cc1` (stereo not drawn), the melting point fell in the range of 147 to 150 °C.
The value for `CC(c1ncccn1)C(O)(Cn1cncn1)c1ccc(F)cc1F` (stereo not drawn) was 193 to 195 °C; that for `COc1cn(-c2ccccc2F)nc(C(=O)N(C)OC)c1=O` was 152 to 154 °C; that for `CN1C(=O)c2[nH]c3cc(Cl)ccc3c2Oc2ccccc21` was 306 to 307 °C.
The value for `Cc1oc(-c2ccccc2)nc1CCOc1ccc(CCC#N)cc1` was 109 to 110 °C.
In turn, `O=C(O)CCCc1nc2nc[nH]c2c2nc(-c3ccccc3)nn12` gave a melting point of 280 °C.
In the case of `CCCN(CCC)C(=O)CNc1nc(-c2ccccc2)nc(C(C)C)c1C`, the melting point was in the range of 98 to 99 °C.
The same measure for `COc1ccc(F)cc1C(C)(C)CC(O)(Cc1cccc(-c2cccnc2)c1)C(F)(F)F` (stereo not drawn): 148 to 150 °C; for `Cc1cc(C)nc(-c2ncc([N+](=O)[O-])n2C)n1`: 148 to 150 °C.
The same measure for `CCn1c(=O)n(OCc2ccccc2)c(=O)c2cc(F)c(N3CCN(C)CC3)nc21`: 178 to 179 °C.
In turn, `CCCCCCCCCCCCCCOCC(COCCCCCCCCCCCCCC)(CC(=O)N(C)C)CC(=O)N(C)C` displayed a melting point of 52 to 54 °C.
Turning to `CCON=C1CN(c2nc3c(cc2F)c(=O)c(C(=O)O)cn3C2CC2)CC12CN(C(=O)OC(C)(C)C)C2`, the melting point was in the range of 261 to 262 °C.
In turn, `Cn1nc(-c2ccc(S(C)(=O)=O)cc2)c(-c2ccc(F)cc2)c1OCC(=O)c1ccc(F)cc1` displayed a melting point of 166 to 169 °C.
The value for `CC1(C)CCC(C)(C)c2cc(C(C(N)=O)C(=O)Nc3ccc(C(=O)O)cc3)ccc21` (stereo not drawn) was 112 to 113 °C; that for `CCC(C(=O)O)c1ccc2c(=O)c3ccccc3ccc2c1` (stereo not drawn) was 147 to 148 °C; that for `CS(=O)(=O)Cc1cc(C(O)CNCCCCCCNCC(O)c2ccc(OCc3ccccc3)c(CS(C)(=O)=O)c2)ccc1OCc1ccccc1` (stereo not drawn) was 146 to 148 °C.
The compound `COCOCc1nc(N)c2ncc(O)nc2n1` showed a melting point of 210 to 212 °C.
As for `Cc1c(C(=O)O)cnn1-c1ccc([N+](=O)[O-])cc1`, the melting point came out at 202 °C.
The value for `CCOc1ccc(-c2nc(-c3ccc(S)cc3C(=O)O)cs2)cc1OCC` was 283 to 285 °C.
Consider `CC(C)(N)CNC(CO)(CO)CO`, for which the melting point lay in the range of 73 to 75 °C.
The same measure for `COCc1cc(Oc2ccc3c(C(=O)Nc4ccc(C)c(C(F)(F)F)c4)cccc3c2)ncn1`: 188 °C; for `COc1cc(OC)c(-c2cc3ccccc3[nH]2)cc1C=CC(=O)c1ccc(S(=O)(=O)Nc2ccccn2)cc1`: 206 to 208 °C; for `CCc1cccc2nc3c(=O)[nH][nH]c(=O)c3c(O)c12`: more than 400 °C.
On to `COC(=O)C(=O)Cc1nc([N+](=O)[O-])cn1C`, for which the melting point was found to be 186 °C.
The value for `O=C1CCCN1C(=O)Oc1ccc(Br)cc1` was 107 to 108 °C; that for `OC1(CNCc2ccccc2)CCN(CCc2c[nH]c3ccc(-n4cnnc4)cc23)C1` (stereo not drawn) was more than 56 °C; that for `Cc1c(-c2ccc(O)cc2)n(Cc2ccc(/C=C/C(N)=O)cc2)c2ccc(O)cc12` was 161 to 163 °C.
The value for `COC(=O)CN(C)c1cccc(-c2ccc(Cl)cc2)n1` was 54 °C.
The value for `O=C1Cn2c(c(Cl)c3ccccc32)-c2ccccc2N1` was 287 to 289 °C; that for `COc1cc(Cl)nc(N(C=O)c2ccccc2)n1` was 118 to 120 °C; that for `CCCCN(C(=O)C(C)C)c1nnc(C)s1` was 54 to 57 °C.
For the compound `CCOC(=O)c1ccc(N2CCN(Cc3cc(C)c4c(c3)NC(=O)C(C)O4)CC2)nc1` (stereo not drawn), the melting point came out at 206 °C.
The same measure for `COc1cnc(C)c(C)c1OC`: 36 to 38 °C; for `O=C1CCCN1c1cccc(-c2ccc(CC34CCCN3C(=O)N(c3cc(Cl)cc(Cl)c3)C4=O)cc2)c1` (stereo not drawn): 86.5 °C; for `CCOC(=O)C1CCc2ccc3[nH]c(C(F)(F)F)nc3c2O1` (stereo not drawn): 134 °C.
The same measure for `CC(=O)OC1CC2(C)C(C(C)=O)=CCC2C2CCC3=CC(=O)C=CC3(C)C12F` (stereo not drawn): 202 to 203 °C; for `Cc1nc(-c2ccccc2)nc(-c2cccc([N+](=O)[O-])c2)c1CNC(N)=S`: 227 to 229 °C.
The value for `Cc1ccc(Nc2ccc(Nc3ncnc4cc(-c5ccccc5)sc34)cc2)cc1` was 221 to 222 °C; that for `C=CCC12CC(=O)N(C)C1(O)CCc1ccc(OC)cc12` (stereo not drawn) was 146 to 149 °C; that for `CC(=O)CCc1ccc2c(c1)Cc1cc(O)ccc1-2` was 170 °C.
`COc1ccc(-c2cc(N3CCN(C(=O)c4cc(S(N)(=O)=O)c(Cl)cc4Cl)CC3)nc(C)n2)cc1OC`: the melting point lay within 150 to 160 °C.
The value for `O=C(Nc1ccc(C(F)(F)F)cc1)NC1CCN(S(=O)(=O)c2cccc(C(F)(F)F)c2)CC1` was 246 to 251 °C.
Compound `CC(C)COc1ccc(C=CC(=O)O)cc1` registered a melting point of 161 to 164 °C.
The value for `CC1(C)CCC(C)(C)c2cc3[nH]c(-c4ccc(C(=O)O)cc4)cc3cc21` was 294 to 296 °C.
In turn, `C#CCN=c1sc2cc(OC(F)(F)F)ccc2n1CC(=O)c1ccc(C)cc1` returned a melting point of 98 to 100 °C.
The value for `CC(C)(C)C(NC(=O)c1ccc(-c2ccco2)cc1)NC(=NC#N)Nc1cccnc1` (stereo not drawn) was 181 to 182 °C.
The value for `CS(=O)(=O)ON=C(C#N)C=Cc1ccccc1` was 127 to 129 °C; that for `CC(C)(C)C(=O)Nc1nc(Cl)c2ccnc-2[nH]1` was more than 210 °C; that for `CSCC(=O)C(Cc1ccccc1)NC(=O)C(CC(C)C)NC(=O)Cc1cccc2ccccc12` (stereo not drawn) was 126 to 129 °C.
Compound `CC1c2ccc(F)n2-c2cc(F)c(F)cc2N1S(=O)(=O)c1ccc(O)cc1` (stereo not drawn) gave a melting point of 184 to 189 °C.
Take `CN(C)c1nc2sc3c(NCc4ccco4)ncnc3c2c2c1CC(C)(C)C2`: the melting point was 217 °C.
The value for `Cc1noc(NC(=O)C2c3ccccc3Oc3ccccc32)n1` was 208 °C; that for `COc1ccc(-c2c3c(cc4ccc(O)cc24)-c2ccc(O)cc2CO3)cc1OC` was 245 to 248 °C.
The same measure for `CC[C@H]1c2ccc(C#N)n2-c2cc(F)c(F)cc2N1S(=O)(=O)c1ccc(O)cc1`: 191 to 192 °C; for `CS(=O)(=O)Nc1ccc(C(=O)c2ccc(Cl)cc2)cc1`: 198 to 200 °C.
As for `COc1ccc2c(c1)C(=NO)c1c-2c(O)nc2ccccc12`, the melting point was in the range of 320 to 321 °C.
The value for `CCOCCOc1cc(C(O)C#Cc2ccc(C(=O)O)cc2)cc2c1C(C)(C)CCC2(C)C` (stereo not drawn) was 158 °C; that for `COc1ccc(C2CCN(c3c(C)c(C)c4c(c3C)C(O)(c3ccc(C)cc3)C(C)(C)O4)CC2)cc1OC` (stereo not drawn) was 133 to 135 °C; that for `Cc1cc(C)c2nc(C3CC3)n(-c3ccc(C(C(=O)O)C4CCCC4)cc3)c2n1` (stereo not drawn) was 180 °C.
With `O=C(O)COc1cccc2c1CCC(Cc1coc(C(c3ccccc3)c3ccccc3)n1)C2` (stereo not drawn), the melting point lay in the range of 158 to 160 °C.
The same measure for `CCCCc1nn(-c2cc(NC(=O)CC)ccc2Cl)c(=O)n1Cc1ccc(-c2ccccc2S(=O)(=O)NC(=O)c2c(F)cccc2Cl)cc1F`: 200 to 203 °C.
The same measure for `CC(=O)OC1CSC(Oc2ccc(I)nc2Cl)C(OC(C)=O)C1OC(C)=O` (stereo not drawn): 188 °C.
The value for `C#CCOc1ccc(CC(=O)O)cc1[N+](=O)[O-]` was 135 to 137 °C.
In turn, `O=C(Oc1cccc2ccccc12)c1ccc(CCl)cc1` gave a melting point of 93 to 96 °C.
In turn, `C=C(C)c1c(OCC)cc(Cc2cnc(N)nc2N)cc1OCC` returned a melting point of 196 to 198 °C.
The compound `N#Cc1c(F)cccc1Nc1ccccc1` returned a melting point of 97 to 99 °C.
The same measure for `Clc1nc(-c2ccc(Br)cc2)nc(Cl)c1-c1ccccc1`: 133 °C.
The same measure for `CC1(C)OC[C@H](CON2C(=O)c3ccccc3C2=O)O1`: 100 to 102 °C; for `CN(O)C(=O)C=Cc1ccc(F)cc1`: 141 to 142 °C.
The value for `O=C(N1CCCC1)N1Cc2c(C3=NCCO3)ncn2-c2ccccc21` was 217 to 220 °C; that for `S=c1[nH]c2cccc(OCCN3CCc4ccccc4C3)c2[nH]1` was 249 to 250 °C; that for `CC(C)C(=CCS(=O)(=O)c1ccccc1)C(C)C` was 50 °C.
The compound `O=c1cc(-c2ccncc2)nc2n1CCC(c1ccncc1)N2` (stereo not drawn) registered a melting point of 268 to 270 °C.
The value for `O=C1C=CC(=O)N1CCN1C(=O)C=CC1=O` was 193 to 194 °C.
The compound `CCOC(=O)c1ccccc1-n1nnnc1C` yielded a melting point of 98 to 100 °C.
The same measure for `CCOC1OC(CO)C(COc2c(C(C)(C)C)cc(SC(C)(C)Sc3cc(C(C)(C)C)c(O)c(C(C)(C)C)c3)cc2C(C)(C)C)O1` (stereo not drawn): 60 to 62 °C; for `COC(=O)c1cn2c3c(c(OS(C)(=O)=O)c(F)cc3c1=O)CCN2C`: 247 to 250 °C; for `CCC(C)COC(=O)c1ccc(-c2ccc(O)cc2)cc1` (stereo not drawn): 112 to 113 °C.
The value for `CC1=N[C@H](c2ccccc2)COC1=O` was 71 to 72 °C.
